{"source": "patent US6608064B2", "about": "“Pharmaceutical agents for the treatment of Parkinson's disease, ADHD and microadenomas” (Pfizer Inc, priority 1998, dated 2003)", "system": "MPTP-(1-methyl-4-phenyl-1,2,3,6-tetrahydropyridine) treated monkeys", "assay": "Parkinsonian score in MPTP-treated monkeys after administration of sunipetron", "type": "in vivo", "settings": "0.5 mg/kg or 1.0 mg/kg, rated at 4 time points vs vehicle, estimated plasma levels (FIG. 1)", "description": "Neurol., 35:655-661, 1994, and Klockgether et al., Ann. Neurol., 30:717-723, 1991.\nThe behavioral effects of administration of sunipetron on parkinsonian score in MPTP-(1-methyl-4-phenyl-1,2,3,6-tetrahydropyridine) treated monkeys was determined. The methods employed are described in Greenemyre et al., supra and Klockgether et al., supra.\nBriefly, parkinsonian monkeys were administered 0.5 mg/kg or 1.0 mg/kg of sunipetron and the severity of parkinsonian symptoms was rated at each of 4 time points after drug administration as compared with administration of a control solution (“Vehicle”).\nThe minimum effective plasma level was approximately 100 ng/ml."}
{"smiles": "O=C1CCC(=O)N1C[C@H]1CC[C@H]2CN(c3ncccn3)CCN2C1", "note": "[sunipetron]", "values": [{"measurement": "minimum effective plasma level (reduction in parkinsonian score)", "result": "approximately 100 ng/ml"}, {"measurement": "plasma level at which the maximum reduction in parkinsonian score was attained", "result": "approximately 200 ng/ml"}]}
